Legend:
Format in all cases: in vivo
Kochia (Kochia scoparia) [1] = assay: Test A preemergence
Outline: (§1)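 Seeded soil received test chemicals as a preemergence directed spray, and seedlings at one to two leaves, 2–10 cm tall, received them postemergence, in a non-phytotoxic, surfactant-containing solvent mixture. Pots were held in a greenhouse for approximately 10 d, then rated for injury from 0, no effect, to 100, complete control.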

[2] = system: barnyardgrass (Echinochloa crus-galli); assay: Test A preemergence
Outline: as §1

[3] = system: giant foxtail (Setaria faberii); assay: Test A preemergence
Outline: as §1

[4] = system: pigweed (Amaranthus retroflexus); assay: Test A preemergence
[5] = system: ragweed (common ragweed, Ambrosia elatior); assay: Test A preemergence
Outline: as §1

[6] = system: ryegrass, Italian (Italian ryegrass, Lolium multiflorum); assay: Test A preemergence
Outline: as §1

[7] = system: Galium (catchweed bedstraw, Galium aparine); assay: Test A postemergence
Outline: as §1

Kochia (Kochia scoparia) [8] = assay: Test A postemergence
Outline: as §1

[9] = system: barnyardgrass (Echinochloa crus-galli); assay: Test A postemergence
Outline: as §1

[10] = system: blackgrass (Alopecurus myosuroides); assay: Test A postemergence
Outline: as §1

corn (Zea mays) = assay: Test A postemergence
Outline: as §1

[11] = system: giant foxtail (Setaria faberii); assay: Test A postemergence
Outline: as §1

[12] = system: pigweed (Amaranthus retroflexus); assay: Test A postemergence
Outline: as §1

[13] = system: ragweed (common ragweed, Ambrosia elatior); assay: Test A postemergence
Outline: as §1

[14] = system: ryegrass, Italian (Italian ryegrass, Lolium multiflorum); assay: Test A postemergence
Outline: as §1

[15] = system: wheat (Triticum aestivum); assay: Test A postemergence
Outline: as §1

[16] = system: barnyardgrass (Echinochloa crus-galli); assay: Test B flooded paddy test; conditions: Flood, 250 g ai/ha; 0 to 100 scale where 0 is no effect and 100 is complete control; 13 to 15 d
Outline: (§2)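 2-leaf plants; pots flooded 3 cm over soil; cpd added to paddy water; depth held; greenhouse 13–15 d; visual rating vs controls, 0 = no effect, 100 = complete control.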

[17] = system: ducksalad (Heteranthera limosa); assay: Test B flooded paddy test; conditions: Flood, 250 g ai/ha; 0 to 100 scale where 0 is no effect and 100 is complete control; 13 to 15 d
Outline: as §2

rice (Oryra sativa) = assay: Test B flooded paddy test; conditions: Flood, 250 g ai/ha; 0 to 100 scale where 0 is no effect and 100 is complete control; 13 to 15 d
Outline: as §2

[18] = system: sedge, umbrella (small-flower umbrella sedge, Cyperus difformis); assay: Test B flooded paddy test; conditions: Flood, 250 g ai/ha; 0 to 100 scale where 0 is no effect and 100 is complete control; 13 to 15 d
Outline: as §2

[19] = 125 g ai/ha, Preemergence, visual injury after approximately 10 d, 0 to 100 scale where 0 is no effect and 100 is complete control
[20] = 500 g ai/ha, preemergence, 0 to 100 scale, 0 = no effect, 100 = complete control
[21] = 125 g ai/ha, postemergence, visual rating after approx. 10 d, 0 to 100 scale (0 no effect, 100 complete control)
[22] = Postemergence, 500 g ai/ha, 0 to 100 scale where 0 is no effect and 100 is complete control
[23] = 500 g ai/ha, postemergence, visual injury, 0 to 100 scale (0 no effect, 100 complete control), approx. 10 d

Row | Structure (SMILES) | Plant response rating, Kochia (Kochia (Kochia scoparia) [1]; [19]) | Plant response rating, Kochia (Kochia (Kochia scoparia) [1]; [20]) | Plant response rating, Barnyardgrass [2, 19] | Plant response rating, Barnyardgrass [2, 20] | Plant response rating, Foxtail, Giant [3, 19] | Plant response rating, Foxtail, Giant [3, 20] | Plant response rating, Pigweed [4, 19] | Plant response rating, Pigweed [4, 20] | Plant response rating, Ragweed [5, 20] | Plant response rating, Ryegrass, Italian [6, 19] | Plant response rating, Ryegrass, Italian [6, 20] | Plant response rating, Galium [7, 21] | Plant response rating, Kochia (Kochia (Kochia scoparia) [8]; [21]) | Plant response rating, Barnyardgrass [9, 21] | Plant response rating, Blackgrass [10, 21] | Plant response rating, Corn (corn (Zea mays); [21]) | Plant response rating, Foxtail, Giant [11, 21] | Plant response rating, Pigweed [12, 21] | Plant response rating, Ragweed [13, 21] | Plant response rating, Ryegrass, Italian [14, 21] | further results
1 | CN1CC(c2cccc(OC(F)F)c2)C(C(=O)Nc2ccccc2F)C1=O (centres unmarked) [Compound 618] | 90 | 90 | 90 | 90 | 90 | 100 | 50 | 90 | 70 | 50 | 90 | 50 | 40 | 90 | 50 | 80 | 90 | 0 | 0 | 40 | Plant response rating, Galium [7, 22]: 60; Plant response rating, Kochia (Kochia (Kochia scoparia) [8]; [22]): 60; Plant response rating, Barnyardgrass [9, 22]: 90; Plant response rating, Blackgrass [10, 22]: 60; Plant response rating, Corn (corn (Zea mays); [22]): 80; Plant response rating, Foxtail, Giant [11, 22]: 90; Plant response rating, Pigweed [12, 22]: 30; Plant response rating, Ragweed [13, 22]: 20; Plant response rating, Ryegrass, Italian [14, 22]: 50; Plant response rating, Wheat [15, 21]: 50; Plant response rating, Wheat [15, 22]: 70; Plant response rating, Barnyardgrass [16]: 85; Plant response rating, Ducksalad [17]: 100; Plant response rating, Rice (rice (Oryra sativa)): 10; Plant response rating, Sedge, Umbrella [18]: 0
2 | CN1CC(c2ccc(C(F)(F)F)cc2)C(C(=O)Nc2ccccc2S(C)(=O)=O)C1=O (centres unmarked) [Compound 624] | 40 | 60 | 90 | 90 | 90 | 90 | 80 | 80 | 70 | 40 | 40 | 30 | 0 | 80 | 40 | 0 | 80 | 20 | 0 | 30 | Plant response rating, Ragweed [5, 19]: 60; Plant response rating, Galium [7, 22]: 50; Plant response rating, Kochia (Kochia (Kochia scoparia) [8]; [22]): 60; Plant response rating, Barnyardgrass [9, 22]: 90; Plant response rating, Blackgrass [10, 22]: 50; Plant response rating, Corn (corn (Zea mays); [22]): 40; Plant response rating, Foxtail, Giant [11, 22]: 90; Plant response rating, Pigweed [12, 22]: 60; Plant response rating, Ragweed [13, 22]: 0; Plant response rating, Ryegrass, Italian [14, 22]: 30; Plant response rating, Wheat [15, 21]: 20; Plant response rating, Wheat [15, 22]: 70; Plant response rating, Barnyardgrass [16]: 70; Plant response rating, Ducksalad [17]: 100; Plant response rating, Rice (rice (Oryra sativa)): 20; Plant response rating, Sedge, Umbrella [18]: 0
3 | CN1CC(c2cccc(C(F)(F)F)c2)C(C(=O)Nc2cccc(F)c2F)C1=O (centres unmarked) [Compound 636] | 50 | 70 | 90 | 90 | 90 | 90 | 40 | 80 | 70 | 90 | 90 | 50 | 50 | 90 | 60 | 70 | 90 | 30 | 0 | 50 | Plant response rating, Ragweed [5, 19]: 20; Plant response rating, Galium [7, 23]: 50; Plant response rating, Kochia (Kochia (Kochia scoparia) [8]; [23]): 60; Plant response rating, Barnyardgrass [9, 22]: 90; Plant response rating, Blackgrass [10, 22]: 60; Plant response rating, Corn (corn (Zea mays); [22]): 80; Plant response rating, Foxtail, Giant [11, 23]: 90; Plant response rating, Pigweed [12, 23]: 50; Plant response rating, Ragweed [13, 23]: 30; Plant response rating, Ryegrass, Italian [14, 23]: 70; Plant response rating, Wheat [15, 21]: 60; Plant response rating, Wheat [15, 23]: 60; Plant response rating, Barnyardgrass [16]: 70; Plant response rating, Ducksalad [17]: 100; Plant response rating, Rice (rice (Oryra sativa)): 0; Plant response rating, Sedge, Umbrella [18]: 0
4 | CN1CC(c2cccc(C(F)(F)F)c2)C(C(=O)Nc2ccccc2S(C)(=O)=O)C1=O (centres unmarked) [Compound 637] | 40 | 60 | 90 | 90 | 90 | 100 | 80 | 100 | 70 | 50 | 90 | 50 | 0 | 90 | 50 | 70 | 90 | 50 | 0 | 20 | Plant response rating, Ragweed [5, 19]: 40; Plant response rating, Galium [7, 23]: 50; Plant response rating, Kochia (Kochia (Kochia scoparia) [8]; [23]): 30; Plant response rating, Barnyardgrass [9, 22]: 90; Plant response rating, Blackgrass [10, 22]: 60; Plant response rating, Corn (corn (Zea mays); [22]): 70; Plant response rating, Foxtail, Giant [11, 23]: 90; Plant response rating, Pigweed [12, 23]: 60; Plant response rating, Ragweed [13, 23]: 20; Plant response rating, Ryegrass, Italian [14, 23]: 20; Plant response rating, Wheat [15, 21]: 70; Plant response rating, Wheat [15, 23]: 70; Plant response rating, Barnyardgrass [16]: 80; Plant response rating, Ducksalad [17]: 100; Plant response rating, Rice (rice (Oryra sativa)): 10; Plant response rating, Sedge, Umbrella [18]: 0
5 | Cc1ccc(C2CN(C)C(=O)C2C(=O)Nc2cccc(F)c2F)cc1 (centres unmarked) [Compound 662] | 70 | 90 | 90 | 90 | 100 | 100 | 70 | 80 | 80 | 40 | 90 | 60 | 70 | 90 | 60 | 80 | 90 | 20 | 20 | 40 | Plant response rating, Ragweed [5, 19]: 80; Plant response rating, Galium [7, 23]: 70; Plant response rating, Kochia (Kochia (Kochia scoparia) [8]; [23]): 70; Plant response rating, Barnyardgrass [9, 23]: 90; Plant response rating, Blackgrass [10, 23]: 80; Plant response rating, Corn (corn (Zea mays); [23]): 90; Plant response rating, Foxtail, Giant [11, 23]: 90; Plant response rating, Pigweed [12, 23]: 50; Plant response rating, Ragweed [13, 23]: 60; Plant response rating, Ryegrass, Italian [14, 23]: 70; Plant response rating, Wheat [15, 21]: 80; Plant response rating, Wheat [15, 23]: 80; Plant response rating, Barnyardgrass [16]: 80; Plant response rating, Ducksalad [17]: 95; Plant response rating, Rice (rice (Oryra sativa)): 20; Plant response rating, Sedge, Umbrella [18]: 0

— patent US12077503B2, “Substituted cyclic amides and their use as herbicides” (FMC CORPORATION, priority 2015, dated 2024)
